Experimental data as given in ChEMBL document CHEMBL1909046, “DrugMatrix in vitro pharmacology data”.

Tests used:
[1] = biological target: Mitogen-activated protein kinase 3 (Homo sapiens, UniProt P27361); assay: DRUGMATRIX: Protein Serine/Threonine Kinase, ERK1 enzyme inhibition (substrate: Myelin Basic Protein); parameters: species or system Escherichia coli; details: Not Active = under 50% inhibition at 10 µM
[2] = biological target: T1, Cytochrome P450 2A6 (Homo sapiens, UniProt P11509); details: bti-tn-5b1-4; also: in other assays of this panel Not Active means under 50% inhibition at 10 µM
T1 sequence (P11509 whole entry): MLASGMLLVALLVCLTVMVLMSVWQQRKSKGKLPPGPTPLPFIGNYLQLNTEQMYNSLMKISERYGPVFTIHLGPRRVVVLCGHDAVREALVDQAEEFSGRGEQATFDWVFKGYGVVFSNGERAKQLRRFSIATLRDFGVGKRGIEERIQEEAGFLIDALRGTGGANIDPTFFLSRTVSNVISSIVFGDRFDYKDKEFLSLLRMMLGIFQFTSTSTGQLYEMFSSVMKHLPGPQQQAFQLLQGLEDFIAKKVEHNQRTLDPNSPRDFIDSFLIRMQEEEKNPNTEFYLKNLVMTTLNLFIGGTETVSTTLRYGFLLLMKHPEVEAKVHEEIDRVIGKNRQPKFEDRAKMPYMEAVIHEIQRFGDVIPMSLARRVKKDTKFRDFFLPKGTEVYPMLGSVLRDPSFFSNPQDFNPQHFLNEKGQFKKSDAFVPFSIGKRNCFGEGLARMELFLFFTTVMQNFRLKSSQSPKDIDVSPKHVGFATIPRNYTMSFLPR

[3] = biological target: D(3) dopamine receptor (Homo sapiens, UniProt P35462); assay: DRUGMATRIX: Dopamine D3 radioligand binding (ligand: [3H] Spiperone); type: cell membranes, CHO, Membrane; details: cho
Chain of D(3) dopamine receptor (P35462 whole entry): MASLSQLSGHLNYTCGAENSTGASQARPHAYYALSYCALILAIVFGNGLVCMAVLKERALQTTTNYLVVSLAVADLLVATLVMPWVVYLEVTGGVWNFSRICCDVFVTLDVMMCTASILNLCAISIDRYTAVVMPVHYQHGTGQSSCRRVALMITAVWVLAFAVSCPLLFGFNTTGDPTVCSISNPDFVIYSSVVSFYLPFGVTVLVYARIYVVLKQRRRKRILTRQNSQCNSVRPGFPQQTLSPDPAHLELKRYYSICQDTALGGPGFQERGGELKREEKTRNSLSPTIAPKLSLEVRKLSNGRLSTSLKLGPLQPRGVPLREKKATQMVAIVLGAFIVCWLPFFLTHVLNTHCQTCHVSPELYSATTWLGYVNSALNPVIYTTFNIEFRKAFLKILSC

[4] = biological target: Melanocortin receptor 5 (Homo sapiens, UniProt P33032); type: cell membranes, HEK293, Membrane; details: hek293; also: in other assays of this panel Not Active means under 50% inhibition at 10 µM
Chain of Melanocortin receptor 5 (P33032 whole entry): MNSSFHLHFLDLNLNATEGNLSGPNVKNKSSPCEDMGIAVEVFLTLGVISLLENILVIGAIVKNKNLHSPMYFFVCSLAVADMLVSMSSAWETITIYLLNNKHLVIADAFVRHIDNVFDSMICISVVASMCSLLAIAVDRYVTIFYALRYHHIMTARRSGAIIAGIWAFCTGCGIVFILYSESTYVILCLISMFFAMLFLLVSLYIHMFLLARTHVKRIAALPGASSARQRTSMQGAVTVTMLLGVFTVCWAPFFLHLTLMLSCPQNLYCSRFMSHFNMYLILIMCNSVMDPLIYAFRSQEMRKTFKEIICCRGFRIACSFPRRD

[5] = DRUGMATRIX: Potassium Channel [KATP] radioligand binding (ligand: [3H] Glyburide); type: cell membranes, Membrane; details: hit-t15; Not Active = under 50% inhibition at 10 µM
[6] = biological target: Vascular endothelial growth factor receptor 1 (Homo sapiens, UniProt P17948); type: cell-based; details: huvec; also: in other assays of this panel Not Active means under 50% inhibition at 10 µM
Chain of Vascular endothelial growth factor receptor 1 (P17948 whole entry): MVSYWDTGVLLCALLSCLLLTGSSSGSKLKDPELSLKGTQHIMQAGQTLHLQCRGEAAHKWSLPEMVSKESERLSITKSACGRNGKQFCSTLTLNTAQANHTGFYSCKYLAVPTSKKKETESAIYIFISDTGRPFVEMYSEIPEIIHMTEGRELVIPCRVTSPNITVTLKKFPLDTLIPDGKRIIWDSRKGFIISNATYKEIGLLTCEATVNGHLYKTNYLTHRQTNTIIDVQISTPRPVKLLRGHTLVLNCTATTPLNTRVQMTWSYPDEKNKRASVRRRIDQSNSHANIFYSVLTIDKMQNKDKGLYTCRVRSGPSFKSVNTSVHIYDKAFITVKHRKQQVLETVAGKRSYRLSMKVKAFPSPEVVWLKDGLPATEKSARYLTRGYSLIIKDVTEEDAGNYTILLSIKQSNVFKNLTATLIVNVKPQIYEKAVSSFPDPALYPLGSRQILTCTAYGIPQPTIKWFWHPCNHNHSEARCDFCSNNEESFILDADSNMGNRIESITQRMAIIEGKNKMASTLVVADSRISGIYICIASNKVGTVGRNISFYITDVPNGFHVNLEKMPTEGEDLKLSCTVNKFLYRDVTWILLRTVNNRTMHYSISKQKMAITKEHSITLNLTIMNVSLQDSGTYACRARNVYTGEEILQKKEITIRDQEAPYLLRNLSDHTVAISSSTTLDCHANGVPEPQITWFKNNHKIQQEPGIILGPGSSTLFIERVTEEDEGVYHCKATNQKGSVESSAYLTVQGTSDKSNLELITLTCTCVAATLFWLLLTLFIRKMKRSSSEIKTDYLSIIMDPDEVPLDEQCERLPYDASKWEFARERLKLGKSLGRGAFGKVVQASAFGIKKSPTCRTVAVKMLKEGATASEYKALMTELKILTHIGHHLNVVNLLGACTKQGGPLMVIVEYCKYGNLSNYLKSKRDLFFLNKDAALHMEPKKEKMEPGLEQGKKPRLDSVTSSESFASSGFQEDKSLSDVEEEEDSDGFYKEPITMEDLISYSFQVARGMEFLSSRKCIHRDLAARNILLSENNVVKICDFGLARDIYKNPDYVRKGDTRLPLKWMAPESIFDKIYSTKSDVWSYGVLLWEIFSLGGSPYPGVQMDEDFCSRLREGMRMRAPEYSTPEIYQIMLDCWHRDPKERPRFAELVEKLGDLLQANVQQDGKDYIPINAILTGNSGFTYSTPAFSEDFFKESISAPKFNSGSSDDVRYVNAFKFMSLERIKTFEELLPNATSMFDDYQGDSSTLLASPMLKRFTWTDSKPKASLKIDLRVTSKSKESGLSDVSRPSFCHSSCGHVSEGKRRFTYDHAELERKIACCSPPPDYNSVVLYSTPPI

[7] = biological target: Insulin receptor (Rattus norvegicus, UniProt P15127); type: cell membranes, Wistar, Liver, Membrane; also: in other assays of this panel Not Active means under 50% inhibition at 10 µM
Chain of Insulin receptor (P15127 27-759 limits assumed): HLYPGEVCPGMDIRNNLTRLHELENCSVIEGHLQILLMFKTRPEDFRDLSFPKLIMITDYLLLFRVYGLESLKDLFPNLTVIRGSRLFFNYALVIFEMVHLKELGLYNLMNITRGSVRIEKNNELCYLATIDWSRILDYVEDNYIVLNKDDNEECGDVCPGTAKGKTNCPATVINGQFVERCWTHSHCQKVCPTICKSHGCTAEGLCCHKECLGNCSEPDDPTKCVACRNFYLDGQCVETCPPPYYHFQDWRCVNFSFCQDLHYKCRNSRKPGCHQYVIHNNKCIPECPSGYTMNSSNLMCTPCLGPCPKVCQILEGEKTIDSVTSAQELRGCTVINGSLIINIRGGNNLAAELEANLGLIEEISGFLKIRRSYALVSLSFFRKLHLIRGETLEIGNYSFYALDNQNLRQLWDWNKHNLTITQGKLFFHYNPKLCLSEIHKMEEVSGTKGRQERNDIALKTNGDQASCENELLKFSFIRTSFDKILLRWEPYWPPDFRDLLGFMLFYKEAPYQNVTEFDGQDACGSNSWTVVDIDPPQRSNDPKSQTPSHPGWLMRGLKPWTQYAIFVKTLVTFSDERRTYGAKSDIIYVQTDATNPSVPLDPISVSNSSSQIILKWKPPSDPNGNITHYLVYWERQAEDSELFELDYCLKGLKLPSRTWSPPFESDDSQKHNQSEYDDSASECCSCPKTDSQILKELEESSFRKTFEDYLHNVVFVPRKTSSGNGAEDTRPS
Chain of Insulin receptor (P15127 764-1383 limits assumed): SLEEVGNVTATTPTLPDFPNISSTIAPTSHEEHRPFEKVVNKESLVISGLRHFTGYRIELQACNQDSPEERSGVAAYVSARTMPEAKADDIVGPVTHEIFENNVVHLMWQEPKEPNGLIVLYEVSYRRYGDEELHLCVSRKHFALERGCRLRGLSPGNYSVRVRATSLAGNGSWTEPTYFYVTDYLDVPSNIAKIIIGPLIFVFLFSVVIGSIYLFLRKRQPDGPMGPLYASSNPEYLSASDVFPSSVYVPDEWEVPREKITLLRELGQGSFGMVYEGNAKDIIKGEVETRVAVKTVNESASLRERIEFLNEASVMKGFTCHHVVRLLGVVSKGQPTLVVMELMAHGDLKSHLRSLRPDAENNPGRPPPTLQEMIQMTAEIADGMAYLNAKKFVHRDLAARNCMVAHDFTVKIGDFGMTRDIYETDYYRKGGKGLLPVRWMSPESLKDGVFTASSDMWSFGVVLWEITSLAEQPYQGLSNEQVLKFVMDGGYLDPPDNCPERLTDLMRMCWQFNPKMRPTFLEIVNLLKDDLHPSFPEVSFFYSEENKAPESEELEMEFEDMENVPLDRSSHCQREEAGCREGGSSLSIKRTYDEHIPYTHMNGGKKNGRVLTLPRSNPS

[8] = DRUGMATRIX: Tumor Necrosis Factor (TNF), Non-Selective radioligand binding (ligand: [125I] TNF-alpha); type: cell membranes, Membrane; details: u-937; Not Active = under 50% inhibition at 10 µM

Chain of Mitogen-activated protein kinase 3 (P27361 whole entry): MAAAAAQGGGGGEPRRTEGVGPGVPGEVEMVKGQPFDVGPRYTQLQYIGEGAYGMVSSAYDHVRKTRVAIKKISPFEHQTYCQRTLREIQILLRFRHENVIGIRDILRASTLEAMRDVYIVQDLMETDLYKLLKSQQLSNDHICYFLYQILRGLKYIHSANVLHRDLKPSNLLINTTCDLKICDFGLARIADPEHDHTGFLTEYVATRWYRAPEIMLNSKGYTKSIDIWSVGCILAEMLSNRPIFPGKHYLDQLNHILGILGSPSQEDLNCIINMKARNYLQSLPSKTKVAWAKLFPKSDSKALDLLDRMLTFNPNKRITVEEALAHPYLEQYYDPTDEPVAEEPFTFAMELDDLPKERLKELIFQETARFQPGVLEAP

NCCCCCC(=O)O [AMINOCAPROIC ACID]
Not Active: IC50 [1] | IC50 [2] | Ki [2] | IC50 [3] | IC50 [4] | IC50 [5] | Ki [5] | IC50 [6] | IC50 [7] | IC50 [8] | Ki [8]

c1ccc(Nc2ccc(Nc3ccccc3)cc2)cc1
Not Active: IC50 [1] | IC50 [2] | Ki [2] | IC50 [3] | IC50 [4] | IC50 [5] | Ki [5] | IC50 [6] | IC50 [7] | IC50 [8] | Ki [8]

NC(=O)N1c2ccccc2CCc2ccccc21
Not Active: IC50 [1] | IC50 [2] | Ki [2] | IC50 [3] | IC50 [4] | IC50 [5] | Ki [5] | IC50 [6] | IC50 [7] | IC50 [8] | Ki [8]

Cc1ccc(-c2cc(C(F)(F)F)nn2-c2ccc(S(N)(=O)=O)cc2)cc1 [CELECOXIB]
Not Active: IC50 [1] | IC50 [2] | Ki [2] | IC50 [3] | IC50 [4] | IC50 [5] | Ki [5] | IC50 [6] | IC50 [7] | IC50 [8] | Ki [8]

Cc1onc(-c2ccccc2Cl)c1C(=O)N[C@@H]1C(=O)N2[C@@H]1SC(C)(C)[C@@H]2C(=O)O [CLOXACILLIN]
Not Active: IC50 [1] | IC50 [2] | Ki [2] | IC50 [3] | IC50 [4] | IC50 [5] | Ki [5] | IC50 [6] | IC50 [7] | IC50 [8] | Ki [8]

LIPOPOLYSACCHARIDE E. COLI O55:B5
Not Active: IC50 [1] | Ki [1] | IC50 [2] | Ki [2] | IC50 [3] | Ki [3] | IC50 [4] | Ki [4] | IC50 [5] | Ki [5] | IC50 [6] | Ki [6] | IC50 [7] | Ki [7] | IC50 [8] | Ki [8]

CC(O)CO (configuration not stated) [PROPYLENE GLYCOL]
Not Active: IC50 [1] | IC50 [2] | Ki [2] | IC50 [3] | IC50 [4] | IC50 [5] | Ki [5] | IC50 [6] | IC50 [7] | IC50 [8] | Ki [8]

CC(C)C(Br)C(=O)NC(N)=O (configuration not stated) [BROMISOVALUM]
Not Active: IC50 [1] | IC50 [2] | Ki [2] | IC50 [3] | IC50 [4] | IC50 [5] | Ki [5] | IC50 [6] | IC50 [7] | IC50 [8] | Ki [8]

CCC(C)n1ncn(-c2ccc(N3CCN(c4ccc(OCC5COC(Cn6cncn6)(c6ccc(Cl)cc6Cl)O5)cc4)CC3)cc2)c1=O (configuration not stated) [ITRACONAZOLE]
Not Active: IC50 [1] | IC50 [2] | Ki [2] | IC50 [3] | IC50 [4] | IC50 [5] | Ki [5] | IC50 [6] | IC50 [7] | IC50 [8] | Ki [8]

CC(C)(C)NCC(O)c1cc(Cl)c(N)c(Cl)c1 (configuration not stated) [CLENBUTEROL]
Not Active: IC50 [1] | IC50 [2] | Ki [2] | IC50 [3] | IC50 [4] | IC50 [5] | Ki [5] | IC50 [6] | IC50 [7] | IC50 [8] | Ki [8]

C[C@](N)(Cc1ccc(O)c(O)c1)C(=O)O [METHYLDOPA]
Not Active: IC50 [1] | IC50 [2] | Ki [2] | IC50 [3] | IC50 [4] | IC50 [5] | Ki [5] | IC50 [6] | IC50 [7] | IC50 [8] | Ki [8]

Cc1ccccc1N1C(=O)c2cc(S(N)(=O)=O)c(Cl)cc2NC1C (configuration not stated) [METOLAZONE]
Not Active: IC50 [1] | IC50 [2] | Ki [2] | IC50 [3] | IC50 [4] | IC50 [5] | Ki [5] | IC50 [6] | IC50 [7] | IC50 [8] | Ki [8]

Cc1ccc(N(CC2=NCCN2)c2cccc(O)c2)cc1 [PHENTOLAMINE]
Not Active: IC50 [1] | IC50 [2] | Ki [2] | IC50 [3] | IC50 [4] | IC50 [5] | Ki [5] | IC50 [6] | IC50 [7] | IC50 [8] | Ki [8]

Nc1nc2c(ncn2CCC(CO)CO)c(=O)[nH]1 [PENCICLOVIR]
Not Active: IC50 [1] | IC50 [2] | Ki [2] | IC50 [3] | IC50 [4] | IC50 [5] | Ki [5] | IC50 [6] | IC50 [7] | IC50 [8] | Ki [8]

CCOc1ccc(NC(C)=O)cc1 [PHENACETIN]
Not Active: IC50 [1] | IC50 [2] | Ki [2] | IC50 [3] | IC50 [4] | IC50 [5] | Ki [5] | IC50 [6] | IC50 [7] | IC50 [8] | Ki [8]

Cc1cc(C(C#N)c2ccc(Cl)cc2)c(Cl)cc1NC(=O)c1cc(I)cc(I)c1O (configuration not stated) [CLOSANTEL]
Not Active: IC50 [1] | IC50 [2] | Ki [2] | IC50 [3] | IC50 [4] | IC50 [5] | Ki [5] | IC50 [6] | IC50 [7] | IC50 [8] | Ki [8]

NC1=NC(=O)C(c2ccccc2)O1 (configuration not stated) [PEMOLINE]
Not Active: IC50 [1] | IC50 [2] | Ki [2] | IC50 [3] | IC50 [4] | IC50 [5] | Ki [5] | IC50 [6] | IC50 [7] | IC50 [8] | Ki [8]
